# ChEMBL document CHEMBL5620377, “Research progress of VEGFR small molecule inhibitors in ocular neovascular diseases” (Eur J Med Chem, 2023)
# How the values were obtained:
# [1] = Inhibition of PDGFRbeta (561 to 1106 residues) (unknown origin); parameters: species or system Homo sapiens
# [2] = molecular target: T1, Vascular endothelial growth factor receptor 2 (Homo sapiens, UniProt P35968); test: Inhibition of VEGFR-2 (unknown origin)
# [3] = molecular target: T1, Vascular endothelial growth factor receptor 2; test: Inhibition of recombinant human VEGFR2 using Poly (Glu,Tyr) 4:1 as substrate incubated for 1 hr by ELISA
# [4] = molecular target: Platelet-derived growth factor receptor beta (Homo sapiens, UniProt P09619); test: Inhibition of recombinant human PDGFRbeta using Poly (Glu,Tyr) 4:1 as substrate incubated for 1 hr by ELISA
# HUVEC = test: Inhibition of VEGF-induced HUVECs proliferation; format: functional, cell-based; settings: Homo sapiens
# [5] = Half life in human; format: ADME
# T1 sequence (P35968 whole entry): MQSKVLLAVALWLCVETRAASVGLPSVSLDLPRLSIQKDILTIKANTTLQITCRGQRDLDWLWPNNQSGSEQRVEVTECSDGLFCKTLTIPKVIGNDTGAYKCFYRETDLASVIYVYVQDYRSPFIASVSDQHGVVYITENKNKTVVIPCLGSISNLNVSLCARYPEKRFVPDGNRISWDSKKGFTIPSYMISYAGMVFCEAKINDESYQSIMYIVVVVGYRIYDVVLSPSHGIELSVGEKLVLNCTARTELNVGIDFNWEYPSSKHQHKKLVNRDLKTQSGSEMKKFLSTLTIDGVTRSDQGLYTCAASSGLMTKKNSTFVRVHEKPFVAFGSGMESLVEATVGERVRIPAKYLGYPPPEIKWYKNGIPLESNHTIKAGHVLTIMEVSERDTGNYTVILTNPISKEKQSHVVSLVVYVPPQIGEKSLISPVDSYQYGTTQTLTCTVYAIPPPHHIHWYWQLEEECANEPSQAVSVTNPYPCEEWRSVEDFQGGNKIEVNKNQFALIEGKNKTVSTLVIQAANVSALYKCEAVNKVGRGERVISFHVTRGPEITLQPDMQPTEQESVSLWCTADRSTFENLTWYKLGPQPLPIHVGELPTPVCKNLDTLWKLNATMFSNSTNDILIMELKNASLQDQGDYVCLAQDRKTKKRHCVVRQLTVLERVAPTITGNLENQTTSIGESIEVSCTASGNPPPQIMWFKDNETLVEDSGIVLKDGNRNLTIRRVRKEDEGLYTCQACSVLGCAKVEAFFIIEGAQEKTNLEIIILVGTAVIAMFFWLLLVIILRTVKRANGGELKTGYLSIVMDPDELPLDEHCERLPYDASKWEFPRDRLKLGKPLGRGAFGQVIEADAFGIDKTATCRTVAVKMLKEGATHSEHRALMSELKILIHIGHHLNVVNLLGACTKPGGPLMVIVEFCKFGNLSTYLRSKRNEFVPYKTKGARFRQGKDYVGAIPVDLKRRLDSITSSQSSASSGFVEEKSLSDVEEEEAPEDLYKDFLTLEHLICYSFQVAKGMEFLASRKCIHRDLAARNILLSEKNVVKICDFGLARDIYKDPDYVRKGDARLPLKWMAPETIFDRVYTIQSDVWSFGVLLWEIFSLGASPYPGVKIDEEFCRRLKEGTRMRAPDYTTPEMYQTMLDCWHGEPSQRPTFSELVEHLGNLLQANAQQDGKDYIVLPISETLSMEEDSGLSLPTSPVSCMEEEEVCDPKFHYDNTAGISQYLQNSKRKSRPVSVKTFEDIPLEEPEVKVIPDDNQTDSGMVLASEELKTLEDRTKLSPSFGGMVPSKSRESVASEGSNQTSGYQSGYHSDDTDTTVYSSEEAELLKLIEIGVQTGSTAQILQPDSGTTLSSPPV
# Sequence of Platelet-derived growth factor receptor beta (P09619 whole entry): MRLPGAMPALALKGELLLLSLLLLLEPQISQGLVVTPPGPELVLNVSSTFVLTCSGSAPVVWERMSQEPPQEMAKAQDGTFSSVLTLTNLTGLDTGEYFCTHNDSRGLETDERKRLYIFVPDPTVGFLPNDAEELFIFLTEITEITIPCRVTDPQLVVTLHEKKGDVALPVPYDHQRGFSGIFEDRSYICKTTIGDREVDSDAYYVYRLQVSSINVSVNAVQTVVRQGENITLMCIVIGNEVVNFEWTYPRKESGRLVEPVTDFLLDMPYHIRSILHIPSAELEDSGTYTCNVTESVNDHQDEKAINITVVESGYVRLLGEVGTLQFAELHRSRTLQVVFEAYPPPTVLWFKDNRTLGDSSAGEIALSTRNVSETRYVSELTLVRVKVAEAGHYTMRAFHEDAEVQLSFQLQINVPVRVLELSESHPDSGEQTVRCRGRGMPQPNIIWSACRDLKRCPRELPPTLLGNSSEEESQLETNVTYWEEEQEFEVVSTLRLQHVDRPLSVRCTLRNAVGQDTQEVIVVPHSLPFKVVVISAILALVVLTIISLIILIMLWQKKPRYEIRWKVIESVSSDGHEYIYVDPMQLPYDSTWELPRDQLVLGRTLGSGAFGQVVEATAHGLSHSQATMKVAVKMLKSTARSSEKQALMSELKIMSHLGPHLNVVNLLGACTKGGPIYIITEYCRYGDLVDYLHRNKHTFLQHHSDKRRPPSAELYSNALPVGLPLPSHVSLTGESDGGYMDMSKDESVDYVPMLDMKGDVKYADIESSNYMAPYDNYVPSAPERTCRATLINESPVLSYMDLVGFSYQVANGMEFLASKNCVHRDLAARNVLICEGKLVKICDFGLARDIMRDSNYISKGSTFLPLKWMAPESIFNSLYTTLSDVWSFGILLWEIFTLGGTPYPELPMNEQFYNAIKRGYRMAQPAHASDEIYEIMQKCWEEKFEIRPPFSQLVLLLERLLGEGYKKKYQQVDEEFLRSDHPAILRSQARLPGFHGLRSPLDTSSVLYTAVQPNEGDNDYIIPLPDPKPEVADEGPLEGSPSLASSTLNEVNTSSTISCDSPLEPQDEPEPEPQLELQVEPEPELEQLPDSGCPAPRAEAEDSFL
half-life [5] [h],Compound,IC50 [2] [nM],IC50 (HUVEC) [nM],other results
> 40,CCN(CC)CCNC(=O)c1c(C)[nH]c(/C=C2\C(=O)Nc3ccc(F)cc32)c1C [SUNITINIB],–,12,–
6.5,Cc1[nH]c(/C=C2\C(=O)Nc3ccc(F)cc32)c(C)c1C(=O)N[C@H]1CCN(C(=O)N(C)C)C1 [VOROLANIB],–,31.5,–

# Second part, the molecule before the results:
Compound,half-life [5] [h],IC50 [2] [nM],IC50 (HUVEC) [nM],other results
CNC(=O)c1cc(Oc2ccc(NC(=O)Nc3ccc(Cl)c(C(F)(F)F)c3)c(F)c2)ccn1 [REGORAFENIB],–,–,–,IC50 [1]: 22 nM
C=C1C(=O)O[C@H]2C[C@H](C)C(/C=C/C(C)=O)=CC[C@H]12,–,380,–,–
COc1cc2c(Oc3ccc4[nH]c(C)cc4c3F)ccnc2cc1OCC1(N)CC1 [CATEQUENTINIB],–,< 1,–,IC50 [3]: 0.2 nM; IC50 [4]: 115 nM
